# Key:
# [1] = tested on: apolipoprotein AI (apoA-I); assay: Levels of apoA-I in SHR rats (RT-PCR); assay type: in vivo, rat; details: 200 mg/kg day p.o., 30 days, before treatment 100%
# Method in brief: (§1)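 SHR rats dosed orally at 200 mg/kg day for 30 days against water vehicle. At study end, blood pressure taken non-invasively by tail cuff and apoA-I assessed as gene expression by RT-PCR.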
# lung cancer cells A549 = assay: Growth of lung cancer cells A549 (IC50); assay type: cell-based, human; details: 72 hours of incubation
# Method in brief: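 Cell counts taken with compound, mean of three independent experiments. Applies to A549 (RPMI 1640, 10% FBS, 37 °C, 5% CO2).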
# P19 cells = assay: NMDA-induced neuronal death in P19 cells; assay type: cell-based; details: NMDA alone 100% death, control without NMDA 0%; negative values = proliferation
# [2] = tested on: breast cancer cells MDA-MB-231; assay: Growth of breast cancer cells MDA-MB-231; assay type: cell-based; details: 72 hours of incubation
# Method in brief: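 Cell counts taken with compound, mean of three independent experiments. Applies to MDA-MB-231.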
# [3] = tested on: Spontaneously Hypertensive Rats (SHR); assay: Blood pressure of SHR rats (cuff-tail method); assay type: in vivo, rat; details: 200 mg/kg day p.o., 30 days, before treatment 214 mmHg
# Method in brief: as §1
# α-synuclein = assay: Expression of α-synuclein in neuronal cultures (cells P19); assay type: cell-based; details: untreated cells 100%
# COX-2 = assay: Expression of COX-2 in LPS-stimulated monocytes in culture; assay type: cell-based, human; details: positive control with LPS 100%
# Text: FIG. 5A also presents a drawing showing the COX-2/COX-1 relationship as % of control (Y axis) for the following compounds (X-axis): OOA (2-hydroxy-oleic acid), OLA (182A1), OALA (183A1), OGLA (183A2), OARA (204A1), OEPA (205A1), ODHA (226A1). […] The reduction of this factor is directly related to the anti-inflammatory medication. The compounds are the same as in the left pane.
# (§2) Cyclooxygenase (COX) is an enzyme that can bind to membranes, taking certain lipids from there and catalyze its conversion into molecules that can have inflammatory activity. The binding of this enzyme to membrane lipids is due in part to the membrane lipid structure. The increased activity of COX 1 and 2 isoforms has been associated with the etiopathology of a number of inflammatory diseases by […] arachidonic acid metabolism to produce pro-inflammatory lipid mediators. The D-PUFA compounds of the present invention produced a series of cellular signals that alter the metabolism of arachidonic acid and, as a result, they inhibit the activity and expression of COX in monocytes in culture (Table 14 and FIG. 5A). […] For this purpose, C57BL6/J mice were treated with the various derivatives (200 mg/kg, p.o.,) after inducing an inflammatory reaction in them by intraperitoneal injection of 20 μg of bacterial lipopolysaccharide (LPS).
# Inhibition of COX-2 expression in monocytes. Percentages of inhibition (compared to the positive control in the presence of LPS, 100%) of COX-2 protein levels (expression) by the various fatty acid derivatives.
# [4] = Serum cholesterol, triglycerides and glucose in SHR rats (colorimetric); assay type: in vivo, rat; details: 200 mg/kg daily p.o., 28 days, untreated rats 100%
# Procedure: In a separate experimental series, SHR rats were treated with various compounds of the present invention (200 mg/kg daily, 28 days, p.o.) and the levels of cholesterol, triglycerides and glucose in serum were measured by colorimetric methods. It was observed that these compounds induce significant (and in many cases marked) reductions in the levels of these metabolites (Table 16).
# Values are expressed as percent, and in untreated (control) rats values were always considered as 100%.
# [5] = tested on: brain cancer cell (glioma) U118; assay: Brain cancer (glioma) U118 cell growth; assay type: cell-based; details: 72 hours of incubation
# Method in brief: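 Cell counts taken with compound, mean of three independent experiments. Applies to U118.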
# TNF-α = assay: Production of TNF-α in serum of LPS-injected C57BL6/J mice; assay type: in vivo; details: LPS 20 μg i.p. (100%), 200 mg/kg p.o.
# Text: as §2
SMILES,Levels of apoA-I [1] [%],IC50 (lung cancer cells A549) [µM],Neuronal death (P19 cells) after treatment with NMDA (P19 cells) [%],IC50 [2] [µM],Blood pressure [3] [mm Hg],Expression of α-synuclein (α-synuclein) [%],"COX-2 protein levels (expression), percentages of inhibition compared to positive control (COX-2) [%]",Cholesterol in serum (top number) [4] [%],Glucose in serum (bottom number) [4] [%],Triglycerides in serum (central number) [4] [%],IC50 [5] [µM],Production of TNF-α in serum (TNF-α) [%]
CCCCCC=CCC=CCCCCCCC(OC=O)C(=O)OCC (stereo not drawn) [182V1],166,340,−17,442,207,83,81,94,93,93,231,81
CCC=CCC=CCC=CCCCCCCC(O)C(=O)OP(=O)(OCC)OCC (stereo not drawn) [183F1],146,347,−35,323,203,61,46,78,76,71,354,91
CCC=CCC=CCC=CCCCCCCC(OC=O)C(=O)OCC (stereo not drawn) [183V1],152,320,−9,326,199,87,79,75,79,70,274,84
CCCCCC=CCC=CCC=CCC=CCCC(C)C(=O)[O-].[Na+] (stereo not drawn) [204L1],188,326,−27,332,197,69,47,83,91,82,247,49
CCC=CCC=CCC=CCC=CCC=CCCC(C)C(=O)[O-].[Na+] (stereo not drawn) [205L1],376,362,−35,253,198,67,53,79,85,78,435,76
CCCCCC=CCC=CCC=CCC=CCCC(OC=O)C(=O)OCC (stereo not drawn) [204V1],161,326,−11,352,198,82,43,84,87,81,345,42
CCCCCC=CCC=CCC=CCCCC(C)C(=O)[O-].[Na+] (stereo not drawn) [183L2],268,283,−29,173,194,73,48,83,92,79,460,91
CCCCCC=CCC=CCC=CCC=CCCC(O)C(=O)OP(=O)(OCC)OCC (stereo not drawn) [204F1],163,392,−46,326,199,52,41,76,84,81,275,46
CCC=CCC=CCC=CCC=CCC=CCCC(OC=O)C(=O)OCC (stereo not drawn) [205V1],315,325,−27,298,191,81,76,85,84,79,510,84

# Reference: patent US11253497B2, “Use of derivatives of polyunsaturated fatty acids as medicaments” (Lipopharma Therapeutics, S.L., priority 2009, dated 2022)
